“And” between values parts separate entries of the source, which are not always exact repeats. Identical values can stand only once. Inconclusive results and toxic doses are left out.
System: BDF1 mice, P388 leukemia ip, median survival T/C
Assay: NCI In Vivo Anticancer Drug Screen. Data for tumor model P388 Leukemia (intraperitoneal) in B6D2F1 (BDF1) mice
Details: endpoint: median survival time, higher = longer survival
How it was run: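 In tumour-bearing mice, survival after compound treatment is set against the vehicle group and given as a quotient.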

[1] = dose: 12.5 mg/kg/injection, schedule: Q01DX009 (ip), vehicle: Klucel (hydroxypropylcellulose) (HPC)
[2] = dose: 25.0 mg/kg/injection, schedule: Q01DX009 (ip), vehicle: Klucel (hydroxypropylcellulose) (HPC)
[3] = dose: 50.0 mg/kg/injection, schedule: Q01DX009 (ip), vehicle: Klucel (hydroxypropylcellulose) (HPC)
[4] = dose: 100.0 mg/kg/injection, schedule: Q01DX009 (ip), vehicle: saline with Tween-80

For COc1cc([C@@H]2c3cc4c(c(O)c3C[C@H]3COC(=O)[C@@H]32)OCO4)cc(OC)c1OC, the T/C (dose: 0.5 mg/kg/injection, schedule: Q01DX001 (ip), vehicle: other) was 115 % of control, the T/C (dose: 0.5 mg/kg/injection, schedule: Q01DX001 (ip), vehicle: saline) was 90 % of control and the T/C (dose: 0.5 mg/kg/injection, schedule: Q01DX010 (ip), vehicle: other) was 122 % of control. For the same compound, the T/C (dose: 1.0 mg/kg/injection, schedule: Q01DX001 (ip), vehicle: other) was 121 % of control, the T/C (dose: 1.0 mg/kg/injection, schedule: Q01DX001 (ip), vehicle: saline) was 109 % of control and the T/C (dose: 1.0 mg/kg/injection, schedule: Q01DX010 (ip), vehicle: other) was 150 % of control. The T/C (dose: 2.0 mg/kg/injection, schedule: Q01DX001 (ip), vehicle: saline) was 118 % of control, the T/C (dose: 2.0 mg/kg/injection, schedule: Q01DX010 (ip), vehicle: other) was 168 % of control and the T/C (dose: 2.0 mg/kg/injection, schedule: Q01DX010 (ip), vehicle: saline) was 104 % of control. The T/C (dose: 4.0 mg/kg/injection, schedule: Q01DX001 (ip), vehicle: saline) was 118 % of control.

In the case of OC1CC2c3ccccc3C1c1cccc[n+]12 (stereo unspecified), the T/C [1] is reported as 87 % of control and 91 % of control, the T/C [2] is reported as 104 % of control and the T/C [3] is reported as 91 % of control and 100 % of control. The T/C (dose: 56.25 mg/kg/injection, schedule: Q04DX003 (ip), vehicle: Klucel (hydroxypropylcellulose) (HPC)) was 100 % of control, the T/C (dose: 75.0 mg/kg/injection, schedule: Q01DX009 (ip), vehicle: Klucel (hydroxypropylcellulose) (HPC)) was 100 % of control and the T/C (dose: 112.5 mg/kg/injection, schedule: Q04DX003 (ip), vehicle: Klucel (hydroxypropylcellulose) (HPC)) was 108 % of control.

For NC(CSCc1ccccc1)CSCc1ccccc1, the T/C (dose: 0.78 mg/kg/injection, schedule: Q04DX003 (ip), vehicle: saline) was 99 % of control, the T/C (dose: 1.56 mg/kg/injection, schedule: Q04DX003 (ip), vehicle: saline) was 86 % of control and 91 % of control and the T/C (dose: 6.25 mg/kg/injection, schedule: Q01DX009 (ip), vehicle: saline) was 107 % of control. The T/C (dose: 6.25 mg/kg/injection, schedule: Q04DX003 (ip), vehicle: saline) was 99 % of control and 104 % of control, the T/C (dose: 12.5 mg/kg/injection, schedule: Q01DX009 (ip), vehicle: saline) was 109 % of control and the T/C (dose: 12.5 mg/kg/injection, schedule: Q04DX003 (ip), vehicle: saline) was 94 % of control and 95 % of control and 100 % of control. The T/C (dose: 25.0 mg/kg/injection, schedule: Q01DX009 (ip), vehicle: saline) was 118 % of control, the T/C (dose: 25.0 mg/kg/injection, schedule: Q04DX003 (ip), vehicle: saline) was 99 % of control and 100 % of control and 120 % of control and the T/C (dose: 50.0 mg/kg/injection, schedule: Q01DX009 (ip), vehicle: saline) was 109 % of control. The T/C (dose: 50.0 mg/kg/injection, schedule: Q04DX003 (ip), vehicle: saline) was 104 % of control and the T/C (dose: 100.0 mg/kg/injection, schedule: Q01DX009 (ip), vehicle: saline) was 109 % of control.

With CC(/C=N/N=C(N)N)=N\NC(N)=S the T/C (dose: 50.0 mg/kg/injection, schedule: Q01DX009 (ip), vehicle: saline with Tween-80) was 96 % of control, the T/C [4] was 116 % of control and the T/C (dose: 200.0 mg/kg/injection, schedule: Q01DX009 (ip), vehicle: saline with Tween-80) was 107 % of control.

For CCOC(=O)Nc1cc(NC/C(=N/O)c2ccc(OC)cc2)c([N+](=O)[O-])c(N)n1, the T/C (dose: 12.5 mg/kg/injection, schedule: Q01DX001 (ip), vehicle: Klucel (hydroxypropylcellulose) (HPC)) was 93 % of control, the T/C (dose: 25.0 mg/kg/injection, schedule: Q01DX001 (ip), vehicle: Klucel (hydroxypropylcellulose) (HPC)) was 93 % of control and the T/C (dose: 50.0 mg/kg/injection, schedule: Q01DX001 (ip), vehicle: Klucel (hydroxypropylcellulose) (HPC)) was 93 % of control.

For COCCCNC1=C(Cl)C(=O)c2ccccc2C1=O, the T/C [3] was 106 % of control, the T/C (dose: 100.0 mg/kg/injection, schedule: Q01DX009 (ip), vehicle: Klucel (hydroxypropylcellulose) (HPC)) was 113 % of control and the T/C (dose: 200.0 mg/kg/injection, schedule: Q01DX009 (ip), vehicle: Klucel (hydroxypropylcellulose) (HPC)) was 109 % of control.

O=C1C=CC(=O)C23CC=CCC12C(=O)c1ccccc1C3=O (stereo unspecified) was tested, and the T/C (dose: 6.25 mg/kg/injection, schedule: Q04DX003 (ip), vehicle: water) was 107 % of control, the T/C (dose: 12.5 mg/kg/injection, schedule: Q04DX003 (ip), vehicle: water) was 107 % of control and the T/C (dose: 25.0 mg/kg/injection, schedule: Q04DX003 (ip), vehicle: water) was 92 % of control.

O=[N+]([O-])c1ccccc1CN1c2ccccc2N=C2c3ccccc3CC21 (stereo unspecified) was tested, and the T/C (dose: 100.0 mg/kg/injection, schedule: Q04DX003 (ip), vehicle: saline sonified) was 116 % of control, the T/C (dose: 200.0 mg/kg/injection, schedule: Q04DX003 (ip), vehicle: saline sonified) was 100 % of control and the T/C (dose: 400.0 mg/kg/injection, schedule: Q04DX003 (ip), vehicle: saline sonified) was 91 % of control.

Nc1cc2c3ccccc3ncc2c2ccccc12 was tested, and the T/C (dose: 100.0 mg/kg/injection, schedule: Q04DX003 (ip), vehicle: saline with Tween-80) was 100 % of control, the T/C (dose: 200.0 mg/kg/injection, schedule: Q04DX003 (ip), vehicle: saline with Tween-80) was 100 % of control and the T/C (dose: 400.0 mg/kg/injection, schedule: Q04DX003 (ip), vehicle: saline with Tween-80) was 100 % of control.

CC1(C)N=C(N)N=C(N)N1c1ccc(Cl)c(Cl)c1 was tested, and the T/C (dose: 7.2 mg/kg/injection, schedule: Q01DX009 (ip), vehicle: Klucel (hydroxypropylcellulose) (HPC)) was 122 % of control, the T/C (dose: 16.0 mg/kg/injection, schedule: Q01DX009 (ip), vehicle: Klucel (hydroxypropylcellulose) (HPC)) was 181 % of control and the T/C (dose: 20.0 mg/kg/injection, schedule: Q04DX003 (ip), vehicle: Klucel (hydroxypropylcellulose) (HPC)) was 120 % of control. The T/C (dose: 22.5 mg/kg/injection, schedule: Q01DX009 (ip), vehicle: Klucel (hydroxypropylcellulose) (HPC)) was 172 % of control, the T/C (dose: 26.0 mg/kg/injection, schedule: Q04DX003 (ip), vehicle: Klucel (hydroxypropylcellulose) (HPC)) was 154 % of control and the T/C (dose: 30.0 mg/kg/injection, schedule: Q01DX009 (ip), vehicle: Klucel (hydroxypropylcellulose) (HPC)) was 95 % of control. The T/C (dose: 40.0 mg/kg/injection, schedule: Q04DX003 (ip), vehicle: Klucel (hydroxypropylcellulose) (HPC)) was 231 % of control and 158 % of control.

In the case of COc1ccc(C(SCC(N)C(=O)O)(c2ccccc2)c2ccccc2)cc1 (stereo unspecified), the T/C (dose: 1.3 mg/kg/injection, schedule: Q01DX009 (ip), vehicle: Klucel (hydroxypropylcellulose) (HPC)) is reported as 117 % of control, the T/C (dose: 2.0 mg/kg/injection, schedule: Q01DX009 (ip), vehicle: Klucel (hydroxypropylcellulose) (HPC)) is reported as 113 % of control and the T/C (dose: 4.12 mg/kg/injection, schedule: Q01DX009 (ip), vehicle: Klucel (hydroxypropylcellulose) (HPC)) is reported as 155 % of control. The T/C (dose: 6.25 mg/kg/injection, schedule: Q01DX009 (ip), vehicle: Klucel (hydroxypropylcellulose) (HPC)) was 160 % of control and 168 % of control and 175 % of control, the T/C [1] was 200 % of control and the T/C [2] was 250 % of control. The T/C (dose: 25.0 mg/kg/injection, schedule: Q04DX003 (ip), vehicle: Klucel (hydroxypropylcellulose) (HPC)) was 155 % of control, the T/C (dose: 33.0 mg/kg/injection, schedule: Q04DX003 (ip), vehicle: Klucel (hydroxypropylcellulose) (HPC)) was 154 % of control and the T/C [3] was 105 % of control. For the same compound, the T/C (dose: 50.0 mg/kg/injection, schedule: Q04DX003 (ip), vehicle: Klucel (hydroxypropylcellulose) (HPC)) was 170 % of control and 185 % of control, the T/C (dose: 66.0 mg/kg/injection, schedule: Q04DX003 (ip), vehicle: Klucel (hydroxypropylcellulose) (HPC)) was 272 % of control and the T/C (dose: 100.0 mg/kg/injection, schedule: Q04DX003 (ip), vehicle: Klucel (hydroxypropylcellulose) (HPC)) was 240 % of control and 205 % of control.

For C[Si](C)(C)O/C=C1\CCCCC1=O, the T/C (dose: 25.0 mg/kg/injection, schedule: Q01DX009 (ip), vehicle: saline with Tween-80) was 110 % of control and the T/C [4] was 117 % of control.
